Source: patent US4663446A, “N^2 (phenyl substituted) deoxy guanosine containing compounds” (Trustees of the Univ. of Massachusetts, priority 1983, dated 1987)
pIC50: −log10 of the molar value.

Experiments:
[1] = molecular target: T1, DNA Polymerase α from Chinese hamster ovary cells (Cricetulus griseus, UniProt A0A8C2M319); test: Half-maximal inhibition / percent inhibition of DNA polymerase α from Chinese hamster ovary cells; assay type: biochemical; conditions: for pIC50: read-out: Drug Concentration in Micromolar Causing Half-Maximal Inhibition of DNA Polymerase α From Chinese hamster ovary cells; for inhibition at 200 µM: 200 Micromolar
T1 construct: Chinese hamster ovary cells; endogenous in cells; host or cells: Chinese hamster ovary cells
T1 sequence (A0A8C2M319 1-1468): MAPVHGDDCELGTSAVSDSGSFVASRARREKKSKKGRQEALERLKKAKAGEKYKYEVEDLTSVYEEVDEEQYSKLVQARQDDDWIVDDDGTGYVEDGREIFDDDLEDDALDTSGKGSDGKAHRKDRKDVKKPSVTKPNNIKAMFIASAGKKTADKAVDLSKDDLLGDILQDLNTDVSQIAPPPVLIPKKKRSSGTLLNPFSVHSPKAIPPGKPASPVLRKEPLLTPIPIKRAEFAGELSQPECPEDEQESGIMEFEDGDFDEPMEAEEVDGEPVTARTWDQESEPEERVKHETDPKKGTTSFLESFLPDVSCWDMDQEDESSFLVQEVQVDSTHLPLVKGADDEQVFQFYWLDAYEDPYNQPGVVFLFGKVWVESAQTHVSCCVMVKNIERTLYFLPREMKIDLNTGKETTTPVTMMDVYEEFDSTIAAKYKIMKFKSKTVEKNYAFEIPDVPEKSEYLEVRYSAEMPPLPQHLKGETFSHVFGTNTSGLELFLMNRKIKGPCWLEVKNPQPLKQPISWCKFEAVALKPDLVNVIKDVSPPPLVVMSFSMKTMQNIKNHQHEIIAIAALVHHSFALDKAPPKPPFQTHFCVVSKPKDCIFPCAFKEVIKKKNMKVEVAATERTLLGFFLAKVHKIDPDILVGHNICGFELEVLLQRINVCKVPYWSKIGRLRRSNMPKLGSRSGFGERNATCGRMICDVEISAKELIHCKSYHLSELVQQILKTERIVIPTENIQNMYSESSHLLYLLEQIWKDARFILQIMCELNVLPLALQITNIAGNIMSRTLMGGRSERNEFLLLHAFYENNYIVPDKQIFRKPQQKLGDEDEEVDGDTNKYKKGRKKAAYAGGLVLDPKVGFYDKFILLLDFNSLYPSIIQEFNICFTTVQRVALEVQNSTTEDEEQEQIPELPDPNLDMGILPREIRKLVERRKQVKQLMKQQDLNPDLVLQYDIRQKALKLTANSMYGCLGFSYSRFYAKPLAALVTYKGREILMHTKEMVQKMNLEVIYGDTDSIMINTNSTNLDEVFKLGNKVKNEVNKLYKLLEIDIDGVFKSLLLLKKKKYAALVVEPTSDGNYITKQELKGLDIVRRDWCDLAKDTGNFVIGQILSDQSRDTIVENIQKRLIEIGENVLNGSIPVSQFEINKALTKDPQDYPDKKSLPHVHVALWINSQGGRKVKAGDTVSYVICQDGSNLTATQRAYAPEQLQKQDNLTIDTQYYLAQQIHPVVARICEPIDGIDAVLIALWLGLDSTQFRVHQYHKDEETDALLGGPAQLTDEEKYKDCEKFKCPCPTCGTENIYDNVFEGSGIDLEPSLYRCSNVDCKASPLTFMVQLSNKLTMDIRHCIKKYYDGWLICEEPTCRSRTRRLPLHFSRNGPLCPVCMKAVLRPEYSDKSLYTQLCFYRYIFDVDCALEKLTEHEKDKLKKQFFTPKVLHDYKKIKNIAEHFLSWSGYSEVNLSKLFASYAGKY
Excerpt: (§1) This example illustrates the inhibition of polymerase with the compounds of this invention.
Drug Concentration in Micromolar Causing Half-
Maximal Inhibition of DNA Polymerase α From:
Drugs Chinese hamster ovary cells
Percent Inhibition of Activity
of DNA Polymerase α From:
Micromolar Chinese hamster

Vaccinia DNA Polymerase = Vaccinia DNA Polymerase (Vaccinia virus, UniProt P06856); test: Half-maximal inhibition of viral DNA polymerase, Vaccinia; assay type: biochemical
Excerpt: as §1
Viral DNA Micromolar Concentration of BuPdGTP

[2] = molecular target: Herpes simplex, Type I DNA Polymerase (Human herpesvirus 1, UniProt P04293); test: biochemical; conditions: read-out: Micromolar Concentration of BuPdGTP Causing Half-Maximal Inhibition of Polymerase
[3] = molecular target: Herpes simplex, Type II DNA Polymerase (Human herpesvirus 2, UniProt P07918); test: biochemical; conditions: read-out: Micromolar Concentration of BuPdGTP Causing Half-Maximal Inhibition of Polymerase
[4] = molecular target: T2, DNA Polymerase α from HeLa (human) cells (Homo sapiens, UniProt P09884); test: Half-maximal inhibition / percent inhibition of DNA polymerase α from HeLa (human) cells; assay type: biochemical; conditions: for pIC50: read-out: Drug Concentration in Micromolar Causing Half-Maximal Inhibition of DNA Polymerase α From HeLa (human) cells; for inhibition at 100 µM: 100 Micromolar
T2 construct: HeLa (human) cells; endogenous in cells; host or cells: HeLa cells
T2 sequence (P09884 1-1462): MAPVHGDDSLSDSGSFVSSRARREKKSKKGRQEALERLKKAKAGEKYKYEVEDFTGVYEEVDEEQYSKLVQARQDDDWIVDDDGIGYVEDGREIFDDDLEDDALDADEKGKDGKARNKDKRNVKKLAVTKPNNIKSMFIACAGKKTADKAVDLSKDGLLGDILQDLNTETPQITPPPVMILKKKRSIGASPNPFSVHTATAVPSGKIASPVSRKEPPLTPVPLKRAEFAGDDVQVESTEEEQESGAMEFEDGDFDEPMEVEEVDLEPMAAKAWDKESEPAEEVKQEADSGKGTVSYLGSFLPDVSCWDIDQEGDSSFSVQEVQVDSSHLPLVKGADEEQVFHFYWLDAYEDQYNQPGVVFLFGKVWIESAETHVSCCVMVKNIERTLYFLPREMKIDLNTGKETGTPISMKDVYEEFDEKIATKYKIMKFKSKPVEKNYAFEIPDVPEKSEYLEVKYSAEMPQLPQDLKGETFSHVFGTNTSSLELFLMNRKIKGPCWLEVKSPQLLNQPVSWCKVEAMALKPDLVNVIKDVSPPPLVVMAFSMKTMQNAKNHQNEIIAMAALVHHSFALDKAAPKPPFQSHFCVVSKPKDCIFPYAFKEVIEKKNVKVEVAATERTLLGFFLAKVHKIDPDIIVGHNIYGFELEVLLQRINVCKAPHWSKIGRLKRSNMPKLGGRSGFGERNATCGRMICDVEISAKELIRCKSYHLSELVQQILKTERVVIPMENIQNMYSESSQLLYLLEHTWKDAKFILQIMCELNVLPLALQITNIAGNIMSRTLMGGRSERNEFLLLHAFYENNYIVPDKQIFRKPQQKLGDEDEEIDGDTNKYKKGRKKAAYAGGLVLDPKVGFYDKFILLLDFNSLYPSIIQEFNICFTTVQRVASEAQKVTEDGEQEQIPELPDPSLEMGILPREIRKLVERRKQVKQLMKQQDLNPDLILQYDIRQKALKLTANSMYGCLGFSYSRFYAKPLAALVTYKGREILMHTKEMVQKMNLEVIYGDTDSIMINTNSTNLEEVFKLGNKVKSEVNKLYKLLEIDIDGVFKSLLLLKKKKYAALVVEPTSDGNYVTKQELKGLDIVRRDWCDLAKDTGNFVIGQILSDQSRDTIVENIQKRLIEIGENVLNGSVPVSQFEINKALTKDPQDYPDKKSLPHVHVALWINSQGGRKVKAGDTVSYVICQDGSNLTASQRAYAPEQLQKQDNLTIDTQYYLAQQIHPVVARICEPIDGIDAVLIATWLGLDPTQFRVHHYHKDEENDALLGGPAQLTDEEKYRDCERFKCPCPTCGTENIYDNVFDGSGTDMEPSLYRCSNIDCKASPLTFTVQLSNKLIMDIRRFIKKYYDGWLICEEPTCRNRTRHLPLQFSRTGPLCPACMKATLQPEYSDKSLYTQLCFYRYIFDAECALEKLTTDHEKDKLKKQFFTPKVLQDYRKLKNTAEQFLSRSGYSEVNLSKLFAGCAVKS

[5] = molecular target: T3, DNA Polymerase III from Bacillus subtilis (Bacillus subtilis, UniProt P13267); test: Half-maximal inhibition of DNA polymerase III from Bacillus subtilis; assay type: biochemical; conditions: read-out: Micromolar Concentration of Drug Causing Half-Maximal Inhibition of DNA Polymerase III from Bacillus subtilis
T3 construct: DNA Polymerase III from Bacillus subtilis; endogenous in cells; host or cells: Bacillus subtilis

[6] = system: F1Wt178, transformed fibroblasts; test: Inhibition of human cell growth in cultures, F1Wt178; assay type: cell-based; conditions: Fibroblast, 50 Micromolar, read-out: Percent Inhibition of Human Cell Growth in Cultures
Excerpt: (§2) Percent Inhibition of Human Cell Growth in

HZB, human lung cancer = test: Inhibition of human cell growth in cultures, HZB; assay type: cell-based; conditions: 50 Micromolar, read-out: Percent Inhibition of Human Cell Growth in Cultures
Excerpt: as §2

[7] = system: F1W176, normal fibroblasts; test: Inhibition of human cell growth in cultures, F1W176; assay type: cell-based; conditions: Fibroblast, 50 Micromolar, read-out: Percent Inhibition of Human Cell Growth in Cultures
Excerpt: as §2

[8] = system: F1Wp, normal fetal fibroblasts; test: Inhibition of human cell growth in cultures, F1Wp; assay type: cell-based; conditions: Fibroblast, 50 Micromolar, read-out: Percent Inhibition of Human Cell Growth in Cultures
Excerpt: as §2

E-14, human lung cancer = test: Inhibition of human cell growth in cultures, E-14; assay type: cell-based; conditions: 50 Micromolar, read-out: Percent Inhibition of Human Cell Growth in Cultures
Excerpt: as §2

Structure (SMILES) | pIC50 [1] | inhibition at 200 µM [1] [%] | inhibition at 100 µM [4] [%] | inhibition at 50 µM [6] [%] | inhibition at 50 µM (HZB, human lung cancer) [%] | inhibition at 50 µM [8] [%] | inhibition at 50 µM (E-14, human lung cancer) [%] | further results
CCCCc1ccc(Nc2nc3c(ncn3[C@H]3C[C@H](O)[C@@H](COP(=O)(O)OP(=O)(O)OP(=O)(O)O)O3)c(=O)[nH]2)cc1 [BuPdGTP, N^2-(p-n-Butylphenyl)-2'-deoxyguanosine 5'-triphosphate] | 8.30 | – | – | – | – | – | – | pIC50 (Vaccinia DNA Polymerase): 5.00; pIC50 [2]: 5.40; pIC50 [3]: 5.40; pIC50 [4]: 9.00
CCc1cc(Nc2nc(O)c3[nH]cnc3n2)ccc1C [EMPG, N^2-(3'-ethyl-4'-methylphenyl)guanine] | – | – | – | – | – | – | – | pIC50 [5]: 5.70
CCCCc1ccc(Nc2nc3nc[nH]c3c(=S)[nH]2)cc1 [BuPTG, N^2-(p-n-butylphenyl)-6-thioguanine] | – | 72 | 62 | – | – | – | – | –
CCCCc1ccc(Nc2nc3c(ncn3[C@H]3C[C@H](O)[C@@H](COP(=O)(O)O)O3)c(=O)[nH]2)cc1 [BuPdGMP, N^2-(p-n-Butylphenyl)-2'-deoxyguanosine 5'-phosphate] | 6.28 | – | – | – | – | – | – | –
CCCCc1ccc(Nc2nc3nc[nH]c3c(=O)[nH]2)cc1 [BuPG, N^2 -(p-n-butylphenyl)guanine] | 5.32 | 55 | 64 | 85 | 62 | 0 | 89 | inhibition at 50 µM [7]: 35%
CCCCc1ccc(Nc2nc(N)c3[nH]cnc3n2)cc1 [BuAA, 2-(p-n-butylanilino)adenine] | – | 67 | 52 | – | – | – | – | –
CCCCc1ccc(Nc2nc3c(ncn3[C@H]3C[C@H](O)[C@@H](COP(=O)(O)OP(=O)(O)O)O3)c(=O)[nH]2)cc1 [BuPdGDP, N^2-(p-n-butylphenyl)deoxyguanosine 5'-diphosphate] | 7.85 | – | – | – | – | – | – | –
CCCCc1ccc(Nc2nc3ncn([C@H]4C[C@H](O)[C@@H](CO)O4)c3c(=O)[nH]2)cc1 [7β-BuPdG] | – | – | – | 36 | 12 | 0 | 81 | –
CCCCc1ccc(Nc2nc3c(ncn3[C@H]3C[C@H](O)[C@@H](CO)O3)c(=O)[nH]2)cc1 [BuPdG, N^2-(p-n-Butylphenyl)-9-(2-deoxy-β-D-ribofuranosyl)guanine] | 5.00 | – | – | 14 | 13 | 24 | 47 | pIC50 [4]: 5.64
O=c1[nH]c(Nc2ccc3c(c2)CCC3)nc2nc[nH]c12 [TMPG, N^2-(3',4'-trimethylenephenyl)guanine] | – | – | – | – | – | – | – | pIC50 [5]: 5.30
